Results reported in US9610285B2, “Compositions for controlling food intake and uses therefor” (UNIVERSITY OF FLORIDA RESEARCH FOUNDATION, INCORPORATED, priority 2011, dated 2017).
Marks after values point to notes of the source that are not given here.

What was measured:
Type in all cases: in vivo, rat
[1] = test system: Male Sprague-Dawley rats; assay: Total caloric intake following drug injections in binge-eating rats (Example 2); conditions: for Effect on total caloric intake, in words: one-way ANOVA over saline, low and high dose
Excerpt: (§1) Male Sprague-Dawley rats, 250-300 g at the onset of the experiment, were obtained from Taconic Farms (Germantown, N.Y., USA). Rats were housed individually on a 12-h reversed light/dark cycle and given 1 wk to acclimate before diet training began.
(§2) The rats were divided into groups (n=10/group) matched for body weight and assigned to one of the following dietary conditions: (1) Binge Sugar, (2) Binge Fat or (3) Binge Sugar-Fat. All rats received palatable diets and standard rodent chow (LabDiet #5001, PMI Nutrition International, Richmond, Ind., USA; 10% fat, 20% protein, 70% carbohydrate, 3.02 kcal/g) for 12 h/day, starting 4 h after the onset of the dark cycle. Water was available ad libitum.
(§3) All palatable foods were mixed in the laboratory. The Binge Sugar group had access to a 10% (w/v) sucrose solution (Domino® Granulated Pure Cane Sugar, dissolved in tap water, 0.4 kcal/mL), the Binge Fat group had access to a 35% (w/v) fat emulsion (3.1 kcal/mL) and the Binge Sugar-Fat group had access to a 10% (w/v) sugar solution and 35% (w/v) fat emulsion (3.5 kcal/mL). Both emulsions were made with Wesson® Pure Vegetable Oil in tap water and 0.6% (w/v) Emplex, a commercially available emulsifier (American Ingredients Company, Kansas City, Mo., USA). Palatable food intakes were recorded daily. Chow intake was recorded weekly. Body weights were taken at the beginning and end of the 21-day diet period.
(§4) After 21 days on these diets, drug testing began. During testing, diet regimens were maintained. Approximately 3.5 h into the dark cycle, animals were weighed and intraperitoneal (i.p.) injections of drug were given (according to the schedule below). 30 min later (4 h into the dark cycle) palatable food and chow were made available to the rats. For the first 3 days, rats were acclimated to handling and daily vehicle injections (0.9% saline, Hospira, Lake Forest, Ill., USA, i.p. 1 mL/kg). For days 4-16 of drug testing, either vehicle or drug was alternatively administered, starting with drug on day 4. […] Intake of palatable food and chow was measured hourly after injection for 4 h and again at the end of the 12-h access period.
(§5) Palatable food and standard chow intakes following saline injections between days 4-16 were averaged. All data were analyzed using one-way ANOVAs with post hoc Multiple Comparisons, when appropriate. In Tables 4-7, values having the same letter superscript are statistically different from one another.

[2] = test system: Male Sprague-Dawley rats; assay: Palatable food intake following drug injections in binge-eating rats (Example 2); conditions: for Effect on palatable food (fat) intake, in words / Effect on palatable food (sugar) intake, in words / Effect on palatable food (sugar-fat) intake, in words: one-way ANOVA over saline, low and high dose
Excerpt: as §1, §2, §3, §4, §5

[3] = test system: rats; assay: Binge eating rats, palatable food and chow intake (Example 1, FIGS. 1-5); conditions: drug alone, i.p., figure legends
Description: Baclofen (at 1.0 and 1.8 mg/kg, administered i.p.)
Baclofen+naltrexone (mixed low and mixed high)
1. Binge Sugar (10% sucrose solution, w/v)
2. Binge Fat (35% oil emulsion, w/v)
3. Binge Sugar/Fat (10% sucrose, 35% oil emulsion, w/v)
Groups of animals (rats) were maintained on their diets for 3 weeks to establish stable binge eating behavior. After this period of time, the rats were administered three days of daily i.p. injections of saline (to acclimate to the injection procedure), and sugar/chow intake was measured after the first hour of access and then hourly for the next 3 hours, as well as at the end of the 12-h access period. After this three-day period, rats were given baclofen+naloxone, and measurements taken as described above. Other dosage amounts of baclofen and naloxone were tested, as were the effects of these compounds alone (with measurements being performed as described above). Vehicle injections were performed between the various tests in order to allow for suitable clearance of compounds from the animals. […] Thus, the treatment appears ideally suited for food addicts, hedonic overeaters and changes food choice but not appetite.

[4] = test system: Male Sprague-Dawley rats; assay: Standard chow intake following drug injections in binge-eating rats (Example 2); conditions: for Effect on standard chow intake, in words: one-way ANOVA over saline, low and high dose
Excerpt: as §1, §2, §3, §4, §5

[5] = Binge Fat group, 1 h, high dose (naltrexone 1.0 mg/kg, baclofen 1.8 mg/kg, or both, i.p.)
[6] = Binge Fat group, 1 h, low dose (naltrexone 0.1 mg/kg, baclofen 1.0 mg/kg, or both, i.p.)
[7] = Binge Fat group, 12 h, high dose (naltrexone 1.0 mg/kg, baclofen 1.8 mg/kg, or both, i.p.)
[8] = Binge Fat group, 12 h, low dose (naltrexone 0.1 mg/kg, baclofen 1.0 mg/kg, or both, i.p.)
[9] = Binge Sugar group, 1 h, high dose (naltrexone 1.0 mg/kg, baclofen 1.8 mg/kg, or both, i.p.)
[10] = Binge Sugar group, 1 h, low dose (naltrexone 0.1 mg/kg, baclofen 1.0 mg/kg, or both, i.p.)
[11] = Binge Sugar group, 12 h, high dose (naltrexone 1.0 mg/kg, baclofen 1.8 mg/kg, or both, i.p.)
[12] = Binge Sugar group, 12 h, low dose (naltrexone 0.1 mg/kg, baclofen 1.0 mg/kg, or both, i.p.)
[13] = Binge Sugar-Fat group, 1 h, high dose (naltrexone 1.0 mg/kg, baclofen 1.8 mg/kg, or both, i.p.)
[14] = Binge Sugar-Fat group, 1 h, low dose (naltrexone 0.1 mg/kg, baclofen 1.0 mg/kg, or both, i.p.)
[15] = Binge Sugar-Fat group, 12 h, high dose (naltrexone 1.0 mg/kg, baclofen 1.8 mg/kg, or both, i.p.)
[16] = Binge Sugar-Fat group, 12 h, low dose (naltrexone 0.1 mg/kg, baclofen 1.0 mg/kg, or both, i.p.)

NC[C@H](CC(=O)O)c1ccc(Cl)cc1 [Baclofen, R-baclofen]
1-H Total Caloric Intake (Kcal) [1, 5]: 17.0 ± 3.0^e,f Kcal
1-H Total Caloric Intake (Kcal) [1, 6]: 30.1 ± 4.1^f Kcal
12-H Total Caloric Intake (Kcal) [1, 7]: 67.7 ± 9.9^g Kcal
12-H Total Caloric Intake [1, 8]: 88.6 ± 7.8 kcal
1-H Total Caloric Intake [1, 9]: 21.9 ± 4.4 kcal
1-H Total Caloric Intake [1, 10]: 26.7 ± 2.3 kcal
12-H Total Caloric Intake [1, 11]: 74.0 ± 6.3 kcal
12-H Total Caloric Intake [1, 12]: 84.8 ± 7.0 kcal
1-H Total Caloric Intake (Kcal) [1, 13]: 15.0 ± 2.6^k,m Kcal
1-H Total Caloric Intake (Kcal) [1, 14]: 34.8 ± 5.6^m Kcal
12-H Total Caloric Intake [1, 15]: 81.4 ± 7.3 kcal
12-H Total Caloric Intake [1, 16]: 89.5 ± 8.8 kcal
Effect on total caloric intake, in words ([1]; Fat group, 1 h): significantly reduced
Effect on total caloric intake, in words ([1]; Fat group, 12 h): significantly reduced
Effect on total caloric intake, in words ([1]; Sugar group, 1 h): no effect
Effect on total caloric intake, in words ([1]; Sugar group, 12 h): no effect
Effect on total caloric intake, in words ([1]; Sugar-Fat group, 1 h): reduced
Effect on total caloric intake, in words ([1]; Sugar-Fat group, 12 h): not apparent
1-H Palatable Food Intake (Kcal) [2, 5]: 6.5 ± 2.0^c,d Kcal
Palatable food intake as a percent of intake after saline injections, 1-H Intake (%) [2, 5]: 38%
1-H Palatable Food Intake (Kcal) [2, 6]: 17.9 ± 2.4^d Kcal
Palatable food intake as a percent of intake after saline injections, 1-H Intake (%) [2, 6]: 106%
Effect on palatable food (fat) intake, in words ([2]; Binge Fat group, 1 h): decreased
12-H Palatable Food Intake (Kcal) [2, 7]: 32.6 ± 4.9^e,f Kcal
Palatable food intake as a percent of intake after saline injections, 12-H Intake (%) [2, 7]: 56%
12-H Palatable Food Intake (Kcal) [2, 8]: 54.5 ± 4.5^f Kcal
Palatable food intake as a percent of intake after saline injections, 12-H Intake (%) [2, 8]: 93%
Effect on palatable food (fat) intake, in words ([2]; Binge Fat group, 12 h): decreased
1-H Palatable Food Intake [2, 9]: 2.7 ± 0.5 kcal
Palatable food intake as a percent of intake after saline injections, 1-H Intake (%) [2, 9]: 96%
1-H Palatable Food Intake [2, 10]: 3.6 ± 0.8 kcal
Palatable food intake as a percent of intake after saline injections, 1-H Intake (%) [2, 10]: 131%
Effect on palatable food (sugar) intake, in words ([2]; Binge Sugar group, 1 h): no effect
12-H Palatable Food Intake (Kcal) [2, 11]: 11.4 ± 2.4^ Kcal
Palatable food intake as a percent of intake after saline injections, 12-H Intake (%) [2, 11]: 90%
12-H Palatable Food Intake [2, 12]: 11.3 ± 2.5 kcal
Palatable food intake as a percent of intake after saline injections, 12-H Intake (%) [2, 12]: 88%
Effect on palatable food (sugar) intake, in words ([2]; Binge Sugar group, 12 h): no effect
1-H Palatable Food Intake (Kcal) [2, 13]: 8.6 ± 1.6^j,k Kcal
Palatable food intake as a percent of intake after saline injections, 1-H Intake (%) [2, 13]: 37%
1-H Palatable Food Intake (Kcal) [2, 14]: 23.5 ± 3.9^j Kcal
Palatable food intake as a percent of intake after saline injections, 1-H Intake (%) [2, 14]: 100%
Effect on palatable food (sugar-fat) intake, in words ([2]; Binge Sugar-Fat group, 1 h): significantly decreased
12-H Palatable Food Intake (Kcal) [2, 15]: 57.4 ± 4.1^p Kcal
Palatable food intake as a percent of intake after saline injections, 12-H Intake (%) [2, 15]: 75%
12-H Palatable Food Intake [2, 16]: 64.9 ± 6.6 kcal
Palatable food intake as a percent of intake after saline injections, 12-H Intake (%) [2, 16]: 85%
Effect on palatable food (sugar-fat) intake, in words ([2]; Binge Sugar-Fat group, 12 h): suppressed intake
Effect on intake of oil-containing palatable foods ([3]; oil containing groups (Binge Fat, Binge Sugar/Fat)): reduces intake
Effect on binge eating of sugar ([3]; sugar-binging rats): no effect
1-H Chow Intake [4, 5]: 10.6 ± 1.0 kcal
1-H Chow Intake [4, 6]: 12.2 ± 1.7 kcal
12-H Chow Intake [4, 7]: 35.0 ± 5.0 kcal
12-H Chow Intake [4, 8]: 34.1 ± 3.3 kcal
1-H Chow Intake [4, 9]: 19.3 ± 3.4 kcal
1-H Chow Intake [4, 10]: 23.0 ± 1.5 kcal
12-H Chow Intake [4, 11]: 62.5 ± 3.8 kcal
12-H Chow Intake (Kcal) [4, 12]: 73.5 ± 4.5^c Kcal
1-H Chow Intake (Kcal) [4, 13]: 6.3 ± 1.0^i Kcal
1-H Chow Intake (Kcal) [4, 14]: 11.3 ± 1.7^i Kcal
Effect on standard chow intake, in words ([4]; Binge Sugar-Fat group, 1 h): less chow intake at the high dose compared to the low dose
12-H Chow Intake [4, 15]: 24.1 ± 3.1 kcal
12-H Chow Intake [4, 16]: 24.6 ± 2.2 kcal
Effect on standard chow intake, in words ([4]; Fat group, 1 h): no effect
Effect on standard chow intake, in words ([4]; Fat group, 12 h): no effect
Effect on standard chow intake, in words ([4]; Sugar group, 1 h): no effect
Effect on standard chow intake, in words ([4]; Sugar group, 12 h): stimulated chow intake
